This is an account of results in patent US20230081426A1, “COMPOUNDS AND METHODS FOR KRAS MODULATION AND INDICATIONS THEREFOR” (Plexxikon Inc., priority 2020, published 2023).

For assay [1], the target named is T1, G12D-mutant human KRAS (amino acid residues 1-188) (Homo sapiens, UniProt P01116, G12D).
T1 construct: G12D or G12C-mutant human KRAS (amino acid residues 1-188) with FLAG tag; made in house; host or cells: E. coli
Briefly: KRAS Binding Disruption Assay (AlphaScreen; biotinylated KRpep-2d analogue or RAF1-RBD), G12D. Conditions: KRAS G12D; geometric mean; read-out: KRAS GMean IC50 (uM) MUTATION: G12D. The essentials:
(§1)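 AlphaScreen readout: signal falls as compound displaces biotinylated KRpep-2d analogue or RAF1-RBD from mutant KRAS. Both partners at 5-20 nM, 1 h binding at 25° C, then 10 μg/mL Anti-Flag acceptor and streptavidin donor beads for 1 h. IC50 by nonlinear regression of % inhibition.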
In general terms: Alpha assays give light when donor and acceptor beads are brought close together.

The target of assay [2] is T2, G12C-mutant human KRAS (amino acid residues 1-188) (Homo sapiens, UniProt P01116, G12C).
T2 construct: G12D or G12C-mutant human KRAS (amino acid residues 1-188) with FLAG tag; made in house; host or cells: E. coli
Briefly: KRAS Binding Disruption Assay (AlphaScreen; biotinylated KRpep-2d analogue or RAF1-RBD), G12C. Conditions: geometric mean, read-out: KRAS GMean IC50 (uM) MUTATION: G12C. The essentials: as §1

T1 sequence (P01116 1-188 isoform P01116-2 G12D): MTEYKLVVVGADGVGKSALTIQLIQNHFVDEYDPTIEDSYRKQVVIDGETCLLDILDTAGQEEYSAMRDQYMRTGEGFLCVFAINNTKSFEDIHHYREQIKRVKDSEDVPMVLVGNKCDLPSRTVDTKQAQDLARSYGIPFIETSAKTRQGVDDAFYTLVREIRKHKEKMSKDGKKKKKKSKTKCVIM
T2 sequence (P01116 1-188 isoform P01116-2 G12C): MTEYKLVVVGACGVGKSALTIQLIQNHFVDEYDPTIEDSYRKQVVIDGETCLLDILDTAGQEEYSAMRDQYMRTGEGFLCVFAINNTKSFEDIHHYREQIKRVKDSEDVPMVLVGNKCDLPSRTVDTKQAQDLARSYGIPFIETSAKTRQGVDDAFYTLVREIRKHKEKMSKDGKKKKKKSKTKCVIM

The term IC50 denotes the concentration that gives 50% inhibition. In the case of `Fc1ccc2[nH]cc(-c3c(Cl)cc4c(N5C[C@H]6CC[C@@H](C5)N6)nc(OCC56CCCN5CCC6)nc4c3F)c2c1F` [P-0765, 4-((1R,5S)-3,8-diazabicyclo[3.2.1]octan-3-yl)-6-chloro-7-(4,5-difluoro-1H-indol-3-yl)-8-fluoro-2-((tetrahydro-1H-pyrrolizin-7a(5H)-yl)methoxy)quinazoline], the half-maximal inhibitory concentration (IC50) in assay [1] and in assay [2] was 0.0001 to 10 µM in each case.

With `O=C1CC(COc2nc(N3C[C@H]4CC[C@@H](C3)N4)c3ccc(-c4cc(O)cc5ccccc45)c(F)c3n2)CN1` (stereo partly drawn) [P-0766, 4-(((4-((1R,5S)-3,8-diazabicyclo[3.2.1]octan-3-yl)-8-fluoro-7-(3-hydroxynaphthalen-1-yl)quinazolin-2-yl)oxy)methyl)pyrrolidin-2-one], the IC50 in assay [1] fell in the range of 0.0001 to 10 µM; in assay [2], 10 to 100 µM.

As for `O=C1NCCC1COc1nc(N2C[C@H]3CC[C@@H](C2)N3)c2ccc(-c3cc(O)cc4ccccc34)c(F)c2n1` (stereo partly drawn) [P-0767, 3-(((4-((1R,5S)-3,8-diazabicyclo[3.2.1]octan-3-yl)-8-fluoro-7-(3-hydroxynaphthalen-1-yl)quinazolin-2-yl)oxy)methyl)pyrrolidin-2-one], the IC50 lay within 0.0001 to 10 µM in assay [1] and 10 to 100 µM in assay [2].

Consider `CC(C)(O)COc1nc(N2C[C@H]3CC[C@@H](C2)N3)c2ccc(-c3cc(O)cc4ccccc34)c(F)c2n1` [P-0768, 4-(4-((1R,5S)-3,8-diazabicyclo[3.2.1]octan-3-yl)-8-fluoro-2-(2-hydroxy-2-methylpropoxy)quinazolin-7-yl)naphthalen-2-ol], for which the figures for the IC50 in assay [1] and in assay [2] were 0.0001 to 10 µM and 10 to 100 µM, respectively.

On to `Oc1cc(-c2ccc3c(N4C[C@H]5CC[C@@H](C4)N5)nc(CCNc4ncccn4)nc3c2F)c2ccccc2c1` [P-0769, 4-(4-((1R,5S)-3,8-diazabicyclo[3.2.1]octan-3-yl)-8-fluoro-2-(2-(pyrimidin-2-ylamino)ethyl)quinazolin-7-yl)naphthalen-2-ol], for which the IC50 in assay [1] lay within 0.0001 to 10 µM; in assay [2], 10 to 100 µM.

For `CC(=O)NCCc1nc(N2C[C@H]3CC[C@@H](C2)N3)c2ccc(-c3cc(O)cc4ccccc34)c(F)c2n1` [P-0770, N-(2-(4-((1R,5S)-3,8-diazabicyclo[3.2.1]octan-3-yl)-8-fluoro-7-(3-hydroxynaphthalen-1-yl)quinazolin-2-yl)ethyl)acetamide], the IC50 lay within 0.0001 to 10 µM in assay [1] and 10 to 100 µM in assay [2].

With `CS(=O)(=O)NCCc1nc(N2C[C@H]3CC[C@@H](C2)N3)c2ccc(-c3cc(O)cc4ccccc34)c(F)c2n1` [P-0771, N-(2-(4-((1R,5S)-3,8-diazabicyclo[3.2.1]octan-3-yl)-8-fluoro-7-(3-hydroxynaphthalen-1-yl)quinazolin-2-yl)ethyl)methanesulfonamide], the half-inhibitory concentration (IC50) was in the range of 0.0001 to 10 µM in assay [1] and 10 to 100 µM in assay [2].

Turning to `COc1ccc(CNCCc2nc(N3C[C@H]4CC[C@@H](C3)N4)c3ccc(-c4cc(O)cc5ccccc45)c(F)c3n2)cc1` [P-0772, 4-(4-((1R,5S)-3,8-diazabicyclo[3.2.1]octan-3-yl)-8-fluoro-2-(2-((4-methoxybenzyl)amino)ethyl)quinazolin-7-yl)naphthalen-2-ol], the 50% inhibitory concentration (IC50) in assay [1] lay within 0.0001 to 10 µM; in assay [2], 10 to 100 µM.

As for `CP(C)(=O)CC(=O)N1[C@@H]2CC[C@H]1CN(c1nc(OCC34CCCN3CCC4)nc3c(F)c(-c4cc(O)cc5ccccc45)ccc13)C2` [P-0773, 2-(dimethylphosphoryl)-1-((1R,5S)-3-(8-fluoro-7-(3-hydroxynaphthalen-1-yl)-2-((tetrahydro-1H-pyrrolizin-7a(5H)-yl)methoxy)quinazolin-4-yl)-3,8-diazabicyclo[3.2.1]octan-8-yl)ethan-1-one], the half-maximal inhibitory concentration (IC50) in assay [1] and in assay [2] was 0.0001 to 10 µM throughout.

Regarding `Fc1cc2c(N3C[C@H]4CC[C@@H](C3)N4)nc(OCC34CCCN3CCC4)nc2c(F)c1-c1c[nH]c2ccc(Cl)c(Cl)c12` [P-0774, 4-((1R,5S)-3,8-diazabicyclo[3.2.1]octan-3-yl)-7-(4,5-dichloro-1H-indol-3-yl)-6,8-difluoro-2-((tetrahydro-1H-pyrrolizin-7a(5H)-yl)methoxy)quinazoline], the IC50 in assay [1] and in assay [2] was 0.0001 to 10 µM in each case.

`Oc1cc(-c2ccc3c(N4C[C@H]5CC[C@@H](C4)N5)nc(OCC4CCCCO4)nc3c2F)c2ccccc2c1` (stereo partly drawn) [P-0775, 4-(4-((1R,5S)-3,8-diazabicyclo[3.2.1]octan-3-yl)-8-fluoro-2-((tetrahydro-2H-pyran-2-yl)methoxy)quinazolin-7-yl)naphthalen-2-ol]: the results for the IC50 in assay [1] and in assay [2] were 0.0001 to 10 µM and 10 to 100 µM, respectively.

`Oc1cc(-c2ccc3c(N4C[C@H]5CC[C@@H](C4)N5)nc(OCC4CCCOC4)nc3c2F)c2ccccc2c1` (stereo partly drawn) [P-0776, 4-(4-((1R,5S)-3,8-diazabicyclo[3.2.1]octan-3-yl)-8-fluoro-2-((tetrahydro-2H-pyran-3-yl)methoxy)quinazolin-7-yl)naphthalen-2-ol]: the IC50 in assay [1] lay within 0.0001 to 10 µM; in assay [2], 10 to 100 µM.

As for `Cc1cc(COc2nc(N3C[C@H]4CC[C@@H](C3)N4)c3ccc(-c4cc(O)cc5ccccc45)c(F)c3n2)no1` [P-0777, 4-(4-((1R,5S)-3,8-diazabicyclo[3.2.1]octan-3-yl)-8-fluoro-2-((5-methylisoxazol-3-yl)methoxy)quinazolin-7-yl)naphthalen-2-ol], the IC50 in assay [1] lay in the range of 0.0001 to 10 µM; in assay [2], 10 to 100 µM.

Turning to `Oc1cc(-c2ccc3c(N4C[C@H]5CC[C@@H](C4)N5)nc(OCC4CC(F)(F)C4)nc3c2F)c2ccccc2c1` [P-0778, 4-(4-((1R,5S)-3,8-diazabicyclo[3.2.1]octan-3-yl)-2-((3,3-difluorocyclobutyl)methoxy)-8-fluoroquinazolin-7-yl)naphthalen-2-ol], the IC50 in assay [1] was 0.0001 to 10 µM; in assay [2] it was 10 to 100 µM.

On to `Oc1cc(-c2ccc3c(N4C[C@H]5CC[C@@H](C4)N5)nc(OCC4CCCCC4)nc3c2F)c2ccccc2c1` [P-0779, 4-(4-((1R,5S)-3,8-diazabicyclo[3.2.1]octan-3-yl)-2-(cyclohexylmethoxy)-8-fluoroquinazolin-7-yl)naphthalen-2-ol], for which the concentration for half-maximal inhibition (IC50) in assay [1] lay in the range of 0.0001 to 10 µM; in assay [2], 10 to 100 µM.

`CN1CCC[C@H]1COc1nc(N2C[C@H]3CC[C@@H](C2)N3)c2cc(F)c(-c3c[nH]c4ncccc34)c(F)c2n1` [P-0780, 4-((1R,5S)-3,8-diazabicyclo[3.2.1]octan-3-yl)-6,8-difluoro-2-(((S)-1-methylpyrrolidin-2-yl)methoxy)-7-(1H-pyrrolo[2,3-b]pyridin-3-yl)quinazoline]: the half-inhibitory concentration (IC50) in assay [1] is 10 to 100 µM; in assay [2], 100 to 1000 µM.

Consider `CN1CCC[C@H]1COc1nc(N2C[C@H]3CC[C@@H](C2)N3)c2ccc(-c3nccc4ccc(F)cc34)c(F)c2n1` [P-0781, 4-((1R,5S)-3,8-diazabicyclo[3.2.1]octan-3-yl)-8-fluoro-7-(7-fluoroisoquinolin-1-yl)-2-(((S)-1-methylpyrrolidin-2-yl)methoxy)quinazoline], for which the IC50 in assay [1] is 10 to 100 µM; in assay [2], 100 to 1000 µM.

Regarding `CN1CCC[C@H]1COc1nc(N2C[C@H]3CC[C@@H](C2)N3)c2ccc(-c3cccc4cccc(Cl)c34)c(F)c2n1` [P-0782, 4-((1R,5S)-3,8-diazabicyclo[3.2.1]octan-3-yl)-7-(8-chloronaphthalen-1-yl)-8-fluoro-2-(((S)-1-methylpyrrolidin-2-yl)methoxy)quinazoline], the 50% inhibitory concentration (IC50) fell in the range of 0.0001 to 10 µM in assay [1] and 10 to 100 µM in assay [2].

On to `CN1CCC[C@H]1COc1nc(N2C[C@H]3CC[C@@H](C2)N3)c2ccc(-c3cccc4ccccc34)c(F)c2n1` [P-0783, 4-((1R,5S)-3,8-diazabicyclo[3.2.1]octan-3-yl)-8-fluoro-2-(((S)-1-methylpyrrolidin-2-yl)methoxy)-7-(naphthalen-1-yl)quinazoline], for which the IC50 in assay [1] lay in the range of 0.0001 to 10 µM; in assay [2], 100 to 1000 µM.

`OCCOc1nc(N2C[C@H]3CC[C@@H](C2)N3)c2ccc(-c3cc(O)cc4ccccc34)c(F)c2n1` [P-0784, 4-(4-((1R,5S)-3,8-diazabicyclo[3.2.1]octan-3-yl)-8-fluoro-2-(2-hydroxyethoxy)quinazolin-7-yl)naphthalen-2-ol]: the half-maximal inhibitory concentration (IC50) in assay [1] was in the range of 0.0001 to 10 µM; in assay [2] it was 10 to 100 µM.

As to `CC1(COc2nc(N3C[C@H]4CC[C@@H](C3)N4)c3ccc(-c4cc(O)cc5ccccc45)c(F)c3n2)COC1` [P-0785, 4-(4-((1R,5S)-3,8-diazabicyclo[3.2.1]octan-3-yl)-8-fluoro-2-((3-methyloxetan-3-yl)methoxy)quinazolin-7-yl)naphthalen-2-ol], the IC50 in assay [1] and in assay [2] was 100 to 1000 µM throughout.

For the compound `Cn1cncc1COc1nc(N2C[C@H]3CC[C@@H](C2)N3)c2ccc(-c3cc(O)cc4ccccc34)c(F)c2n1` [P-0786, 4-(4-((1R,5S)-3,8-diazabicyclo[3.2.1]octan-3-yl)-8-fluoro-2-((1-methyl-1H-imidazol-5-yl)methoxy)quinazolin-7-yl)naphthalen-2-ol], the IC50 in assay [1] and in assay [2] was 0.0001 to 10 µM each time.

For `Oc1cc(-c2ccc3c(N4C[C@H]5CC[C@@H](C4)N5)nc(OC4CCC(O)CC4)nc3c2F)c2ccccc2c1` (stereo partly drawn) [P-0787, 4-(4-((1R,5S)-3,8-diazabicyclo[3.2.1]octan-3-yl)-8-fluoro-2-((4-hydroxycyclohexyl)oxy)quinazolin-7-yl)naphthalen-2-ol], the IC50 was in the range of 0.0001 to 10 µM in assay [1] and 10 to 100 µM in assay [2].

As to `Fc1cc2c(N3C[C@H]4CC[C@@H](C3)N4)nc(OCC34CCCN3CCC4)nc2c(F)c1-c1c[nH]c2ccc(F)c(F)c12` [P-0788, 4-((1R,5S)-3,8-diazabicyclo[3.2.1]octan-3-yl)-7-(4,5-difluoro-1H-indol-3-yl)-6,8-difluoro-2-((tetrahydro-1H-pyrrolizin-7a(5H)-yl)methoxy)quinazoline], the IC50 in assay [1] and in assay [2] was 0.0001 to 10 µM each time.
